# From PubChem BioAssay (NCI)
# Where “and” joins values, the source holds several entries; their conditions need not be identical. Equal values may be shown once.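 These data come from cells grown in 96-well plates and exposed to compound for 48 hours at five concentrations. The concentration for 50% growth inhibition is given as GI50. TGI is the concentration that stops growth completely.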
# Legend:
# Test in all cases: NCI tumour cell line growth inhibition, 48 h
# [1] = tested on: MDA-N
# [2] = tested on: RXF-631 renal
# [3] = tested on: DMS 114 small cell lung
# [4] = tested on: SNB-78 CNS
# [5] = tested on: LXFL 529 NSCLC
# [6] = tested on: HOP-18 NSCLC
# [7] = tested on: DLD-1 colon
# [8] = tested on: M19-MEL melanoma
# [9] = tested on: XF 498 CNS
# [10] = tested on: P388/ADR leukemia
# [11] = tested on: SN12K1 renal
SMILES,TGI [1],TGI [2],TGI [3],TGI [4],TGI [5],TGI [6],TGI [7],TGI [8],TGI [9],also measured
CC(C)OC(=O)NNc1c(Cl)cc(Cl)cc1Cl,> 100 µM,–,–,–,–,–,–,–,–,–
CCOC(=O)N1C/C(=C\c2ccc(N(C)C)cc2)C(=O)/C(=C/c2ccc(N(C)C)cc2)C1,–,> 100 µM,> 100 µM,> 100 µM,> 100 µM,> 100 µM,> 100 µM,> 100 µM,–,–
CC12CC(Br)(Br)C(=O)C3C1CCCC32,9.66 µM,–,16.2 µM,44.8 µM,6.83 µM,22.6 µM,13.6 µM,22.8 µM,21 µM,–
NNC(=O)C(=O)N/N=C1\CCCC1C(=O)CCC(=O)Nc1cccc(Cl)c1 (stereo not drawn),–,> 100 µM,> 100 µM,> 100 µM,> 100 µM,> 100 µM,> 100 µM,> 100 µM,> 100 µM,–
COC(=O)N1C=CC2=C(C)C3Nc4ccccc4C3C(C)=C2C1 (stereo not drawn),–,–,> 100 µM,3.66 µM,9.94 µM,–,19.8 µM,> 100 µM,7.87 µM,–
Cc1ccc(S(=O)(=O)NC(=O)Nc2ncn[nH]2)cc1,> 100 µM,–,–,–,–,–,–,–,–,–
CCOC(=O)c1ccc(N[C@@H]2c3cc4c(cc3C(c3cc(OC)c(O)c(OC)c3)[C@H]3C(=O)OCC32)OCO4)cc1 (stereo partly drawn),–,–,3.65 µM,66.2 µM,34.7 µM,–,8.02 µM,9.13 µM,0.979 µM and 5.6 µM,GI50 [3]: 0.326 µM; TGI [10]: 0.0959 µM; GI50 [9]: 0.418 µM; TGI [11]: 1.44 µM; GI50 [7]: 0.877 µM; GI50 [8]: 0.697 µM
CCCCCCCCCCCCNC(=S)OCCCC,–,> 100 µM,> 100 µM,> 100 µM,> 100 µM,> 100 µM,> 100 µM,> 100 µM,> 100 µM,–
O=c1oc2cc(O)ccc2cc1-c1nc2ccccc2o1,> 100 µM,–,–,–,–,–,–,–,–,–
NC(=O)c1c(-c2ccccc2)c(-c2ccccc2)cc2c(=O)c3ccccc3[nH]c12,–,87.1 µM,56.8 µM,54.1 µM,32.7 µM,–,> 100 µM,79.3 µM,36.6 µM,–
CC[C@@]1(O)C(=O)OCc2c1cc1n(c2=O)Cc2cc3c(N)c(OC)ccc3nc2-1,–,2.74 µM,0.189 µM,> 100 µM,> 25.6 µM,> 100 µM,> 100 µM,1.46 µM,4.14 µM,GI50 [2]: 0.176 µM; GI50 [3]: 0.0252 µM; GI50 [4]: 1.22 µM; GI50 [9]: 0.389 µM; GI50 [5]: 0.953 µM; GI50 [6]: 0.14 µM; GI50 [7]: 1 µM; GI50 [8]: 0.159 µM
O=S(=O)(c1ccccc1)C1(C2(S(=O)(=O)c3ccccc3)CCN=N2)CCN=N1 (stereo not drawn),–,–,> 100 µM,–,> 100 µM,–,> 100 µM,> 100 µM,> 100 µM,–
O=[N+]([O-])C(=C1c2ccccc2-c2ccccc21)[N+](=O)[O-],–,–,–,> 100 µM,> 100 µM,–,–,–,–,–
CN(COC(=O)C(C)(C)C)c1nc(N(C)COC(=O)C(C)(C)C)nc(N(C)COC(=O)C(C)(C)C)n1,80.3 µM,–,–,–,–,–,–,–,–,–
Cc1ccc(C)c(NC(=O)C(=O)C(C2C(C)CC(=O)C2CC(=O)O)[N+](=O)[O-])c1 (stereo not drawn),–,> 100 µM,> 100 µM,> 100 µM,> 100 µM,–,> 100 µM,> 100 µM,> 100 µM,–
CN1C=C(C(N)=O)Cc2ccsc21,–,–,> 100 µM,> 100 µM,> 100 µM,> 100 µM,> 100 µM,> 100 µM,–,–
O=S(=O)([O-])c1ccc(C=Nc2ccccc2)c([O-])c1.O=S(=O)([O-])c1ccc(C=Nc2ccccc2)c([O-])c1.[Co+2],–,–,> 100 µM,> 100 µM,–,> 100 µM,> 100 µM,> 100 µM,> 100 µM,GI50 [3]: > 100 µM; GI50 [4]: 51.7 µM; GI50 [9]: 20.6 µM; GI50 [6]: 43.1 µM; GI50 [7]: 5.18 µM; GI50 [8]: 78.7 µM
Nc1ncnc2c1ncn2C1(CO)OC(CO)C(O)C1O (stereo not drawn),–,> 100 µM,> 100 µM,> 100 µM,> 100 µM,> 100 µM,> 100 µM,–,> 100 µM,–
CCOC(=O)C(c1ccsc1)P(=O)(OCC)OCC (stereo not drawn),–,–,29 µM,76.9 µM,26.7 µM,43.8 µM,44.9 µM,25.7 µM,38.4 µM,–
CC(C)CC1CC2C(=O)N(c3ccccc3)C(=O)C2c2[nH]c3ccccc3c21 (stereo not drawn),–,51.8 µM,52.7 µM,> 100 µM,> 100 µM,31.4 µM,> 100 µM,> 100 µM,48.6 µM,–
COc1ccc(-c2cc(-c3ccco3)c(C#N)c(=O)n2C2OC(COC(C)=O)C(OC(C)=O)C(OC(C)=O)C2OC(C)=O)cc1 (stereo not drawn),–,> 100 µM and 46.5 µM,> 100 µM,> 100 µM,59.6 µM,> 100 µM and 64.2 µM,> 100 µM,> 100 µM,–,GI50 [2]: > 100 µM and 14.3 µM; GI50 [3]: > 100 µM and 21.6 µM
O=C1C2C3C=CC(C2C(=O)N1CN1CCOCC1)C1C2C(=O)N(CN4CCOCC4)C(=O)C2C31 (stereo not drawn),> 100 µM,74.9 µM,34.1 µM,> 100 µM,36.1 µM,60.2 µM,> 100 µM,40.5 µM,–,–

SMILES,TGI [1],TGI [2],TGI [3],TGI [4],TGI [5],TGI [6],TGI [7],TGI [8],TGI [9],also measured
O=C1C=C(c2ccccc2)NC1(c1ccccc1)c1cc(-c2ccccc2)[nH]c1-c1ccccc1 (stereo not drawn),–,> 100 µM,> 100 µM,> 100 µM,> 100 µM,> 100 µM,> 100 µM,> 100 µM,–,–
Cc1ncc2c(n1)CCC1=C2OS(=O)(=O)CC1N(C)C (stereo not drawn),> 100 µM,–,–,–,–,–,–,–,–,–
CCCOC(=O)C1C(c2ccc(OC)cc2)NC(c2ccc(OC)cc2)C(C(=O)OCCC)S1(=O)=O (stereo not drawn),–,> 100 µM,> 100 µM,> 100 µM,> 100 µM,–,> 100 µM,–,–,GI50 [2]: > 100 µM; GI50 [3]: > 100 µM; GI50 [4]: > 100 µM; GI50 [5]: > 100 µM; GI50 [7]: > 100 µM
CC1=C(C(=O)Nc2cc(F)c(F)cc2F)C(c2ccc(N(C)C)cc2)C(C(=O)Nc2cc(F)c(F)cc2F)=C(C)N1,–,86.2 µM,62.8 µM,65.4 µM,63 µM,–,> 100 µM,> 100 µM,–,–
O=C(O)CC(CC(=O)O)n1cccc1,> 100 µM,–,–,–,–,–,–,–,–,–
COc1ccc(C)cc1-c1ccc(-c2cc(C)ccc2OC)o1,–,> 100 µM,> 100 µM,> 100 µM,> 100 µM,–,> 100 µM,> 100 µM,–,–
N/N=C1\C(=O)N(c2ccc(Cl)c(Cl)c2)C(=O)C1C(=O)Nc1ccc(Cl)c(Cl)c1 (stereo not drawn),–,> 100 µM,> 100 µM,79.5 µM,> 100 µM,> 100 µM,> 100 µM,> 100 µM,–,–
CC1(C)CCOC(Sc2ccccc2)C1 (stereo not drawn),–,–,> 100 µM,> 100 µM,> 100 µM,–,> 100 µM,> 100 µM,> 100 µM,–
CCN(CC)CCNc1ccc2nc(C)n3c4ccc(OC)cc4c(=O)c1c23,17.2 µM,–,14.6 µM,–,17.5 µM,–,10.9 µM,19.5 µM,–,–
C[C@H]1CCC/C=C/[C@@H]2C[C@H](O)C[C@H]2[C@H](O)C(O)C(O)C(=O)O1 (stereo partly drawn),> 100 µM,–,–,–,–,–,–,–,–,GI50 [1]: 4.53 µM
COc1ccc(C2=NC(CO)[C@H](c3ccccc3)O2)cc1OC (stereo partly drawn),–,> 100 µM,> 100 µM,–,> 100 µM,–,> 100 µM,> 100 µM,> 100 µM,–
CC(C)C[C@H](NC(=O)[C@@H](N)Cc1cccc2ccccc12)B(O)O,–,–,–,–,–,–,–,–,–,GI50 [1]: < 0.01 µM
Oc1ccc(Br)cc1C=Nc1ccc(Oc2ccc(N=Cc3cc(Br)ccc3O)cc2)cc1,–,–,> 19.6 µM,–,> 19.6 µM,> 19.6 µM,> 19.6 µM,> 19.6 µM,–,–
CC[P+](C)(C)CC,–,> 100 µM,> 100 µM,> 100 µM,> 100 µM,> 100 µM,> 100 µM,> 100 µM,–,–
O=C1OC(=O)c2c1cc1cc3c(cc1c2-c1ccc2c(c1)OCO2)OCO3,> 100 µM,–,–,–,–,–,–,–,–,–
CC1Nc2ccccc2NC1C=C(C#N)C#N (stereo not drawn),–,24.4 µM,40.7 µM,36.4 µM,25.7 µM,40.1 µM,30.2 µM,30.5 µM,31.1 µM,–
O=C1/C(=C/c2ccccc2)CN(C(=O)/C=C/c2ccccc2)C/C1=C\c1ccccc1,3.43 µM,> 100 µM,> 43.8 µM,> 73 µM,29.1 µM,97.6 µM,11.3 µM,> 22.9 µM,38 µM,–
Cc1ccccc1-c1cc(=O)c2cc(C)c(C)c(C(=O)O)c2o1,–,> 100 µM,> 100 µM,> 100 µM,> 100 µM,> 100 µM,> 100 µM,> 100 µM,> 100 µM,–
CC(=O)OC1CCC2(C)C(=CCC3C2CCC2(C)C3CC3OC4(CCC(C)CN4)C(C)C32)C1 (stereo not drawn),> 100 µM,–,–,–,–,–,–,–,–,–
NNC(=S)N/N=C(\c1nc2ccc(Cl)cc2[nH]c1=O)C(O)c1cccc([N+](=O)[O-])c1 (stereo not drawn),–,> 100 µM,> 24.5 µM,> 100 µM,> 100 µM,> 100 µM,–,> 100 µM,> 100 µM,–
O=C1CC2=CCCC2O1 (stereo not drawn),–,–,> 100 µM,> 100 µM,> 100 µM,–,> 100 µM,> 100 µM,> 100 µM,–
CN(C)Cc1nsc(N(C)C)n1,> 100 µM,–,–,–,–,–,–,–,–,–
